Columns and labels:
[1] = system: glycation of histone H1 by ADP-ribose; experiment: Screening of inhibitors of nonoxidative advanced glycation: AGE-fluorescence on 96 well-microtiter plate; format: biochemical, calf; settings: (± SEM, n = 2); for AGE-fluorescence (day 5): complete reaction under air
Description: All operations were carried out at 4° C. Chromatin was isolated from fresh calf thymus by extraction with 0.14 M NaCl, 0.05 M Na2S2O5, as described earlier in Wondrak supra. After repeated extraction with 5% HCl)4 and centrifugation (1500 g), histone H1 was precipitated from the supernatant by addition of TCA (20% final concentration v/v). The histone H1 precipitate was colleted by centrifugation (12,000 g) and deionized water. After extensive dialysis (MW cut-off: 12,000-14,000) against water for 48 h, the sample was lyophilized and the protein was stored at 4° C. SDS-PAGE (12%) was used to analyze the purity of the preparation.
Earlier studies have reported that D-penicillamine inhibits collagen crosslinking and AGE fluorescence caused by sugars (McPherson, J. D., Shilton, B. H., and Walton, D. J. 1988. Role of Fructose in Glycation and Cross-Linking of Proteins. Biochemistry 27, 1901-1907) and reaction of D-penicillamine with aldehyde groups of proteins (Deshmukh, K., and Nimm, M. E. 1969. A Defect in the Intramolecular and Intermolecular Cross-linking of Collagen caused by Penicillamine. J. Biol. Chem. 244, 1787-1795). A number of different penicillamines and penicillamine derivatives were tested to determine the inhibition of AGE-fluorescence on histone H1 at physiological pH. The reaction conditions for the glycation of histone H1 by ADP-ribose mimic physiological conditions to the extent possible. Reaction mixtures contain 1.5 mg/ml histone Hl, 1.0 mM ADP-ribose, 50 mM potassium phosphate buffer, pH 7.4, 37° C. D,L-penicillamine; L-penicillamine; D-penicllamine; D-penicillaminedisulfide and N,S- isopropylidine-D-penicillamine were tested in concentrations of 1,5 and 10 mM. The detected reaction parameter representing the accumulation of protein damage is AGE-fluorescence ((λex=[…]), which is suppressed by the presence of a compound with inhibitory activity. Generation of AGE-type fluorescence (λex=355 nm; λem=405 nm) was monitored over time at 37° C; which is in the range of the broad excitation/emission maxima of AGE compounds. To allow high throughput sample processing on 96 well microtiter plates, the reaction volumes are 300 μl. Fluorescence on the 96-well microtiter plates was measured using an automated microtiter fluorescence reader. Fluorescence of the 1 ml samples of the glycation reaction mixtures was measured using a Hitachi F-200 fluorescence spectophotometer, and prior to measurement the protein sample is dialyzed extensively against water (MW cutoff=[…]), lyophilized and reconstituted in reaction buffer. For inhibitor screening the plate is read on a Fluoroskan II plate reader (Titertek, ICN) at the excitation/emission wavelengths set forth above at a bandwidth of 35 nm.
The following screening scheme is used (see Table 1): AGE-fluorescence is determined at the beginning and after five days of incubation. Test compounds that are inherently fluorescent (designated false negatives) were identified by the initial fluorescence measurement (See Table 1, NADH for example). Since these are compounds of uncertain activity, they are diverted directly to the second stage of the screen. Aminoguanidine, a known glycation inhibitory agent, was used as a positive control for suppression of the increase on AGE-fluorescence. After five days incubation and plate reading, fluorescence quenchers (designated false positives) are excluded by measuring the quenching activity of the test compound by addition of AGE modified protein having known fluorescence activity to one microtiter plate well containing test compound in the complete reaction mixture. For this, AGE-BSA is used as the AGE-type fluorescence standard. This AGE-BSA test excludes false positives compounds that function by fluorescence quenching. If fluorescence quenching occurs the test compound is excluded from further screening. […] The protein is visualized by silver staining of the gel. […]

[2] = system: ΦX-174 DNA; experiment: AGE-BSA photosensitized cleavage of ΦX-174 DNA under solar simulated light; format: biochemical; settings: for effect on AGE-BSA photosensitized DNA cleavage: solar simulated light, AGE-BSA as photosensitizer; for photosensitizing activity (DNA nicking): SSL 0.8-16 J/cm^2
Description: Glycated Proteins as Photosensitizers of DNA Damage in Skin Photoaging. D-Penicillamine inhibits genotoxic consequences of AGE-photosensitization. Accumulation of AGEs on dermal elastin and collagen occurs during normal skin aging in humans. The hypothesis was tested that the intra- and extracellular accumulation of the complex yellow-brown AGE-chromophores contributes to skin aging and carcinogenesis induced by chronic exposure to sunlight. As a possible molecular mechanisms for a detrimental synergism of AGE-formation and exposure to sunlight, photosensitized DNA damage by AGEs was assessed in a simple in vitro system. Irradiation of covalently closed circular ΦX-174 DNA with increasing doses of solar simulated light (SSL) in the presence of AGE-BSA was used to detect photosensitized DNA nicking as a measure of DNA photodamage (panel A). […] Addition of several antioxidants modulated the photosensitization effect (panel C).

[3] = system: HaCat keratinocytes; experiment: AGE-photosensitization of human skin cells, growth inhibition under solar simulated light
Description: Human HaCat keratinocytes growing on 35 mm dishes were exposed to solar simulated light (1.2 kJ/m^2 UVB and 23 kJ/m^2 UVA) in the presence or absence of AGE-BSA as a model of a protein with advanced glycation endproducts. Control populations were treated in exactly the same way as described above, but were not exposed to solar simulated light (SSL).

Row | Molecule | AGE-fluorescence (day 0) ([1]; compound 1 mM) | AGE-fluorescence (day 5) ([1]; compound 1 mM) | AGE-fluorescence (day 0) ([1]; compound 5 mM) | AGE-fluorescence (day 5) ([1]; compound 5 mM) | AGE-fluorescence (day 0) ([1]; compound 10 mM) | AGE-fluorescence (day 5) ([1]; compound 10 mM) | effect on AGE-BSA photosensitized DNA cleavage [2] | photosensitizing activity (DNA nicking) [2] | increase in growth inhibition as compared to SSL alone ([3]; 10 mg/mL AGE-BSA with SSL) | growth inhibition ([3]; 10 mg/mL AGE-BSA with SSL (1.2 kJ/m^2 UVB and 23 kJ/m^2 UVA))
1 | NC(CCS)C(=O)O (racemic) [D,L-Homocysteine] | 1.3 (0.0) relative units | 16 (1.1) relative units | 1.2 (0.2) relative units | 22 (0.1) relative units | 1.1 (0.1) relative units | 27 (1.7) relative units | – | – | – | –
2 | CC(C)(S)C(N)C(=O)O (racemic) [D,L-Penicillamine] | 1.1 (0.2) relative units | 13 (0.0) relative units | 1.1 (0.1) relative units | 2.7 (0.0) relative units | 1.1 (0.1) relative units | 1.7 (0.0) relative units | – | – | – | –
3 | O=C1CC(=O)NC(=S)N1 [2-Thiobarbituric acid] | 1.1 (0.1) relative units | 12 (0.4) relative units | 1.2 (0.1) relative units | 5.3 (0.4) relative units | 1.3 (0.1) relative units | 2.3 (0.0) relative units | – | – | – | –
4 | NCCS [Cysteamine] | 1.0 (0.1) relative units | 10 (0.6) relative units | 1.1 (0.1) relative units | 9.0 (0.7) relative units | 1.2 (0.2) relative units | 6.0 (0.3) relative units | – | – | – | –
5 | N[C@@H](CCC(=O)N[C@@H](CS)C(=O)NCC(=O)O)C(=O)O [GSH, glutathione] | 1.3 (0.0) relative units | 19 (0.3) relative units | 1.1 (0.3) relative units | 17 (0.3) relative units | 1.1 (0.0) relative units | 14 (0.5) relative units | – | – | – | –
6 | COC(=O)[C@@H](N)CS [L-Cys-OMe] | 1.2 (0.1) relative units | 15 (0.1) relative units | 1.3 (0.1) relative units | 12 (0.8) relative units | 1.2 (0.1) relative units | 9.0 (0.2) relative units | – | – | – | –
7 | N[C@@H](CS)C(=O)O [L-Cys] | 1.2 (0.1) relative units | 14 (0.3) relative units | 1.1 (0.1) relative units | 11 (0.2) relative units | 1.2 (0.1) relative units | 9.0 (0.2) relative units | – | – | – | –
8 | C[N+](C)(C)[C@@H](Cc1c[nH]c(=S)[nH]1)C(=O)[O-] [L-Ergothioneine] | 1.0 (0.1) relative units | 13 (0.0) relative units | 1.2 (0.0) relative units | 9.3 (0.2) relative units | 1.2 (0.1) relative units | 7.4 (0.1) relative units | – | – | – | –
9 | OC[C@@H](O)[C@@H](O)[C@H](O)[C@H](O)CO [Mannitol] | – | – | – | – | – | – | blocked the photosensitized DNA cleavage | – | – | –
10 | CC(=O)N[C@@H](CS)C(=O)O [NAC] | 1.2 (0.2) relative units | 11 (0.6) relative units | 1.0 (0.1) relative units | 10 (0.4) relative units | 1.1 (0.1) relative units | 9.4 (0.6) relative units | – | – | – | –
11 | NC(=O)C1=CN([C@@H]2O[C@H](COP(=O)(O)OP(=O)(O)OC[C@H]3O[C@@H](n4cnc5c(N)ncnc54)[C@H](O)[C@@H]3O)[C@@H](O)[C@H]2O)C=CC1 [NADH] | – | – | 52 (0.3) relative units | 31 (0.0) relative units | – | – | – | – | – | –
12 | [N-]=[N+]=[N-].[Na+] [NaN3] | – | – | – | – | – | – | blocked the photosensitized DNA cleavage | – | – | –
13 | AGE-BSA: Glycosylated Bovine Serum Albumin, BSA incubated with D-glucose for 90 days at 37° C. | – | – | – | – | – | – | – | the damage was concentration dependent | 4 fold | 80%
14 | L-Cys-Gly | 1.3 (0.3) relative units | 17 (0.0) relative units | 1.2 (0.2) relative units | 26 (0.4) relative units | 1.2 (0.1) relative units | 40 (0.0) relative units | – | – | – | –
15 | Unmodified BSA: unmodified bovine serum albumin | – | – | – | – | – | – | – | no such photosensitizing activity | – | –
16 | catalase | – | – | – | – | – | – | not effective | – | – | –

From US6417235B2, “Method and use of α-amino-β-mercapto-ethane derivatives as dicarbonyl scavengers for treatment of conditions resulting from protein, lipid, and DNA damage” (University of Kentucky Research Foundation, priority 2000, dated 2002)
